Measurements taken from patent US10807974B2, “Methylamine derivatives as lysysl oxidase inhibitors for the treatment of cancer” (The Institute of Cancer Research: Royal Cancer Hospital, priority 2016, dated 2020).
Counter-ions that a name gives are not always drawn. Like-named read-outs stand apart in the source and are kept apart here.

What was measured:
MAO-A = MAO-A (Homo sapiens (Human), UniProt P21397); experiment: Monoamine oxidase A (MAO-A) selectivity assay; assay type: biochemical
MAO-B = MAO-B (Homo sapiens (Human), UniProt P27338); experiment: Monoamine oxidase B (MAO-B) selectivity assay; assay type: biochemical
[1] = system: MATN2 in MDA-MB-231 cells; experiment: MATN2 level in treated cells; assay type: cell-based, human
Method: All samples were fixed in 4% paraformaldehyde (EMS). Fixed cells were then subjected to incubation with primary antibodies followed by fluorescence secondary antibodies (Life Technologies) to visualise extracellular proteins. Anti-human MATN2 (R&D) antibody was used at 1:100 dilutions. DAPI (Sigma) was used to stain DNA.
Proteins were extracted from cultured cells using cell lysis buffer (Cell Signalling Technology) with the addition of protease and phosphatase inhibitor cocktails (Pierce). Protein concentrations were measured using Pierce 660 nm protein assay reagent and SpectaMax M5 plate reader. […] Separated proteins were transferred to nitrocellulose membranes using a Trans-Blot turbo transfer system (Bio-Rad). Following blocking with Odyssey blocking buffer (Li-COR), membranes were incubated with two primary antibodies of different species at 4° C. over night. Corresponding fluorescence secondary antibodies (Li-COR) of different excitation and emission wavelengths were used to visualize the protein of interest on an Odyssey CLx infrared imaging system (Li-COR). Quantification of band fluorescent intensity was achieved using Li-COR ImageStudio. The following primary antibodies were used, anti-LOX (Sigma), anti-human MATN2 (R&D), anti-EGFR and anti-pY1068EGFR (Cell Signalling Technology), and anti-GAPDH (Millipore).

[2] = system: TGF beta signalling (pSMAD2); experiment: TGF beta signalling (pSMAD2); assay type: cell-based; conditions: FIG. 15b
[3] = system: diet-induced obesity in rats; conditions: diet-induced obesity in rats (Miana, Galan et al. 2015); cited from earlier work
adipose tissue = conditions: Heiberg, Khan et al. 2009; cited from earlier work
[4] = system: human breast cancer cells; conditions: cited from earlier work
human cancer cell lines = conditions: several human cancer cell lines; cited from earlier work
cervical cancer cells = cervical cancer cells (Yang et al. 2013); cited from earlier work
[5] = system: human breast cancer cells; conditions: mice treated with conditioned medium in the presence of BAPN; cited from earlier work
myocardial fibrosis = conditions: mouse model (Rosin, Sopel et al. 2015); cited from earlier work
[6] = system: experimental pulmonary hypertension; conditions: Nave, Mizikova et al. 2014; cited from earlier work
[7] = system: angiotensin II-induced cardiac hypertrophy; conditions: in vivo (Ohmura, Yasukawa et al. 2012); cited from earlier work
Staphylococcus Aureus = conditions: Beerlage, Greb et al. 2013; cited from earlier work
schistosomiasis = conditions: cited from earlier work
3D cell culture = 3D cell culture (not in 2D) (Schuetze, Roehrig et al. 2015); cited from earlier work
in vivo [8] = conditions: female, mouse, po, 50 mg/kg
LOXL2 = LOXL2 (Homo sapiens (Human), UniProt Q9Y4K0); experiment: LOXL2 enzyme activity assay (ROS-Glo; pre-incubation 20 min Method (a), 60 min Method (b), 20 h Method (c)); assay type: biochemical
in vivo [9] = conditions: rat, po, 20 mg/kg
[10] = read-out: LOXL2 IC50 b) 1 hr, pre-incubation 1 hr, Method (b)

Sequence of MAO-A (P21397 whole entry): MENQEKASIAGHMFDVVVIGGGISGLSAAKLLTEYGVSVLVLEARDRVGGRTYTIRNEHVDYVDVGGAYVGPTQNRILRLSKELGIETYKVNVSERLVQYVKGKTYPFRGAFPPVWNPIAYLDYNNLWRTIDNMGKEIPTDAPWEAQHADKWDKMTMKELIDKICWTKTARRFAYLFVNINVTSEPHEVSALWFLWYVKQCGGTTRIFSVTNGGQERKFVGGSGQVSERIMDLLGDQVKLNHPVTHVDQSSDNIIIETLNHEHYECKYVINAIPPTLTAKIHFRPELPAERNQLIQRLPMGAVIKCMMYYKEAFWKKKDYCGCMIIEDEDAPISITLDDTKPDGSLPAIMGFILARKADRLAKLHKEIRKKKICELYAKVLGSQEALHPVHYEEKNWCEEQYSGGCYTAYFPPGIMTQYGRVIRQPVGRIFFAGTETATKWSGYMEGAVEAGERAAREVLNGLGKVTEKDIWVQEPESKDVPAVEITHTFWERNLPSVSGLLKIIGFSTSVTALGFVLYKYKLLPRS
Sequence of LOXL2 (Q9Y4K0 26-774, species assumed): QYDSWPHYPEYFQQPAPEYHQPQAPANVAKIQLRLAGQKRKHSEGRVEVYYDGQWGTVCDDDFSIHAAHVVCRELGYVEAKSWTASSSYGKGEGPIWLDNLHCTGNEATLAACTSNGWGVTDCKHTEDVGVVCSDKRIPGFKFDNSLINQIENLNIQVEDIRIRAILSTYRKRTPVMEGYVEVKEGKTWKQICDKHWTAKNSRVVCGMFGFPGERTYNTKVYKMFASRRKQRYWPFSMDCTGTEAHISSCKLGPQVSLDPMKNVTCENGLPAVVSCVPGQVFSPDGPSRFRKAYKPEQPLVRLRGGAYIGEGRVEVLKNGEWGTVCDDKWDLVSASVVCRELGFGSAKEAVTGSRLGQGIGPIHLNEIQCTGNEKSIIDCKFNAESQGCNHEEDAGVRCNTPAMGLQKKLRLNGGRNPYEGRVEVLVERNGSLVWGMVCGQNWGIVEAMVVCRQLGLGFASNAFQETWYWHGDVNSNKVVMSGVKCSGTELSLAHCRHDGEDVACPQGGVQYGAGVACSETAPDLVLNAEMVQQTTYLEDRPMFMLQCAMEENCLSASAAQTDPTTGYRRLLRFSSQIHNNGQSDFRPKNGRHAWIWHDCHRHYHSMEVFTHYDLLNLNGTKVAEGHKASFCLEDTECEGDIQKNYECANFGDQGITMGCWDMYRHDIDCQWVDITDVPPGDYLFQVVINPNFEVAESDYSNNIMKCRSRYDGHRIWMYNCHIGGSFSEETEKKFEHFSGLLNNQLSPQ
Sequence of MAO-B (P27338 whole entry): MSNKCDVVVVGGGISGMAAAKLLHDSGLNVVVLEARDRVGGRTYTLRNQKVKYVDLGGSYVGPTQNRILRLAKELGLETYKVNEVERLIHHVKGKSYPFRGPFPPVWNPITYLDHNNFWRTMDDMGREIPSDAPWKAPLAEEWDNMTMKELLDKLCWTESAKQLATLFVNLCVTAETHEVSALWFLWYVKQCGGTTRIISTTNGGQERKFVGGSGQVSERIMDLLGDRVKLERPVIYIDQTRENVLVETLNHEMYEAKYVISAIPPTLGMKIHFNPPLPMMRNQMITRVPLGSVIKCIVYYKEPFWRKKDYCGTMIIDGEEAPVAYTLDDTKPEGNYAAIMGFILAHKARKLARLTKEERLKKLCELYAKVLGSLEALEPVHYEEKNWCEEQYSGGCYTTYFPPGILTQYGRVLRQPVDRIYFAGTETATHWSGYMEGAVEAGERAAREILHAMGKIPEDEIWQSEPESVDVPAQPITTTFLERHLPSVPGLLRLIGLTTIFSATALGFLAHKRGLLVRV

For `N#CCCN` [BAPN, beta-aminopropionitrile], the “inhibition of MAO-A” value (MAO-A) was “neither inhibits”, the “inhibition of MAO-B” value (MAO-B) was “neither inhibits” and the MATN2 level ([1]; FIG. 15b) was “MATN2 reduction”. For the same compound, the MATN2 level ([1]; MDA-MB-231 cells, at a much higher concentration, FIG. 13) was “same effect”, the “TGF beta signalling as indicated by pSMAD2” value [2] was “increased TGF beta signalling” and the body weight gain [3] was “reduces body weight gain”. The metabolic profile [3] was “improves the metabolic profile”, the “local adipose tissue inflammation” value (adipose tissue) was “reduces local adipose tissue inflammation” and the metastatic tumour growth ([4]; breast cancer cells in mice (Erler et al, 2006)) was “can block metastatic tumour growth”. For the same compound, the invasion and metastasis ([4]; orthotopic human breast tumours or circulating human breast cancer cells, CRC, HCC, LKB1-mutant lung adenocarcinoma, anaplastic thyroid cancer, PDAC in mice) was “significantly reduced invasion and metastasis”, the “in vitro invasion activity” value (human cancer cell lines) was “blocks the in vitro invasion activity” and the “hypoxia-induced invasion and migration mediated by the EMT” value (cervical cancer cells) was “can be inhibited”. The “enhanced colonisation of the lung” value [5] was “blocked”, the myocardial fibrosis (myocardial fibrosis) was “reduces myocardial fibrosis” and the “symptoms of experimental pulmonary hypertension” value [6] was “reduces the symptoms”. The cardiac hypertrophy [7] was “inhibits angiotensin II-induced cardiac hypertrophy”, the “abscesses morphology and collagenisation” value (Staphylococcus Aureus) was “influences resulting abscesses morphology and collagenisation” and the “size of the granulomas” value (schistosomiasis; Giboda, Zenka et al. 1992) was “reduces the size of the granulomas”. The egg load (schistosomiasis; in combination with antiparasitic drug PZQ compared to PZQ alone) was “reduces the egg load” and the “sensitivity to doxorubicin and paclitaxel” value (3D cell culture) was “can be restored”.

In the case of `CS(=O)(=O)c1cc(-c2ccccc2)cc(S(=O)(=O)c2ccc(CN)s2)c1` [Example 68, (5-((5-(Methylsulfonyl)-[1,1′-biphenyl]-3-yl)sulfonyl)thiophen-2-yl)methanamine], the MATN2 level ([1]; FIG. 15b) is reported as “MATN2 reduction”.

In the case of `Cc1ccc(-c2cc(S(=O)(=O)c3ccc(CN)s3)ccc2S(C)(=O)=O)cc1` [Example 82, (5-((4′-Methyl-6-(methylsulfonyl)-[1,1′-biphenyl]-3-yl)sulfonyl)thiophen-2-yl)methanamine Hydrochloride], the IC50 (MAO-B) is reported as > 100000 nM, the AUC (in vivo [8]) is reported as 12 µM·h and the Cmax (in vivo [8]) is reported as 9.4 µM.

Compound `NCc1ncc([S+]([O-])c2ccccc2)s1` (stereo not shown) [Example 95, (5-(Phenylsulfinyl)thiazol-2-yl)methanamine Hydrochloride] has an IC50 (LOXL2; read-out: LOXL2 IC50 c) 20 hr, pre-incubation 20 hr, Method (c)) of 1000 nM.

For `NCc1ncc(S(=O)(=O)c2cc3ccccc3c3ccccc23)s1` [Example 97, (5-(Phenanthren-9-ylsulfonyl)thiazol-2-yl)methanamine Hydrochloride], the IC50 (MAO-B) was > 100000 nM.

`Cn1c(S(=O)(=O)c2ccc3ccccc3c2)cnc1CN` [Example 123, (1-Methyl-5-(naphthalen-2-ylsulfonyl)-1H-imidazol-2-yl)methanamine Dihydrochloride] gave an IC50 (LOXL2; [10]) of 19000 nM.

For `NCc1ccc(S(=O)(=O)c2cccc(S(=O)(=O)N3CCCC3c3ccccc3)c2)s1` (stereo not shown) [Example 124, (5-((3-((2-Phenylpyrrolidin-1-yl)sulfonyl)phenyl)sulfonyl)thiophen-2-yl)methanamine Hydrochloride], the IC50 (LOXL2; [10]) was 120 nM.

For `CN(C)C(=O)c1cc(-c2ccccc2)cc(S(=O)(=O)c2cnc(CN)s2)c1` [Example 125, 5-((2-(Aminomethyl)thiazol-5-yl)sulfonyl)-N,N-dimethyl-[1,1′-biphenyl]-3-carboxamide Dihydrochloride], the IC50 (MAO-A) was > 100000 nM and the IC50 (MAO-B) was > 100000 nM.

In the case of `NCc1ncc(S(=O)(=O)c2cc(C(=O)O)cc(-c3ccccc3)c2)s1` [Example 126, 5-((2-(Aminomethyl)thiazol-5-yl)sulfonyl)-[1,1′-biphenyl]-3-carboxylic Acid Ditrifluoroacetate], the IC50 (MAO-A) is reported as > 100000 nM, the IC50 (MAO-B) is reported as > 100000 nM and the AUC (in vivo [8]) is reported as 413 µM·h. It also gave a Cmax (in vivo [8]) of 100 µM, an AUC (in vivo [9]) of 106 µM·h and a Cmax (in vivo [9]) of 35 µM.

With `CS(=O)(=O)c1cc(S(=O)(=O)c2ccc(CN)s2)ccc1-c1ccccc1` [Example 129, (5-((2-(Methylsulfonyl)-[1,1′-biphenyl]-4-yl)sulfonyl)thiophen-2-yl)methanamine Hydrochloride] the IC50 (LOXL2; [10]) was 480 nM.

In the case of `Cn1cc(-c2cc(F)cc(S(=O)(=O)c3cnc(CN)s3)c2)cn1` [Example 131, (5-(3-Fluoro-5-(1-methyl-1H-pyrazol-4-yl)phenyl)sulfonyl)thiazol-2-yl)methanamine Trihydrochloride], the IC50 (MAO-A) is reported as > 100000 nM and the IC50 (MAO-B) is reported as > 100000 nM.

For `COCn1cc(-c2cc(OC)cc(S(=O)(=O)c3cnc(CN)s3)c2)cn1` [Example 141, (5-((3-Methoxy-5-(1-(methoxymethyl)-1H-pyrazol-4-yl)phenyl)sulfonyl)thiazol-2-yl)methanamine tri-trifluoroacetate], the IC50 (LOXL2; [10]) was 72 nM.

Compound `COc1cc(-c2cn[nH]c2)cc(S(=O)(=O)c2cnc(CN)s2)c1` [Example 142, (5-((3-methoxy-5-(1H-pyrazol-4-yl)phenyl)sulfonyl)thiazol-2-yl)methanamine tri-trifluoroacetate] has an IC50 (LOXL2; [10]) of 410 nM.

With `NCc1ncc(S(=O)(=O)c2cc(C(=O)N3CCC(O)C3)cc(-c3ccccc3)c2)s1` (stereo not shown) [Example 149, (5-((2-(Aminomethyl)thiazol-5-yl)sulfonyl)-[1,1′-biphenyl]-3-yl)(3-hydroxypyrrolidin-1-yl)methanone Dihydrochloride] the IC50 (LOXL2; pre-incubation 1 hr, Method (b)) was 260 nM.

For `Cn1cc(-c2cc(C(=O)O)cc(S(=O)(=O)c3cnc(CN)s3)c2)cn1` [Example 150, 3-(2-(Aminomethyl)thiazol-5-yl)sulfonyl)-5-(1-methyl-1H-pyrazol-4-yl)benzoic Acid Trihydrochloride], the IC50 (MAO-A) was > 100000 nM, the IC50 (MAO-B) was > 100000 nM and the AUC (in vivo [8]) was 38 µM·h. The Cmax (in vivo [8]) was 10 µM.

`CCNC(=O)c1cc(-c2ccccc2)cc(S(=O)(=O)c2cnc(CN)s2)c1` [Example 151, 5-((2-(Aminomethyl)thiazol-5-yl)sulfonyl)-N-ethyl-[1,1′-biphenyl]-3-carboxamide Dihydrochloride] gave an IC50 (LOXL2; [10]) of 77 nM.

For `NCc1ncc(S(=O)(=O)c2cc(C(=O)NCCO)cc(-c3ccccc3)c2)s1` [Example 152, 5-((2-(Aminomethyl)thiazol-5-yl)sulfonyl)-N-(2-hydroxyethyl)-[1,1′-biphenyl]-3-carboxamide Dihydrochloride], the IC50 (LOXL2; [10]) was 560 nM.

For `CCNC(=O)c1cc(-c2cnn(C)c2)cc(S(=O)(=O)c2cnc(CN)s2)c1` [Example 154], the IC50 (LOXL2; [10]) was 150 nM.

With `Cn1cc(-c2cc(C(=O)N3CC[C@@H](O)C3)cc(S(=O)(=O)c3cnc(CN)s3)c2)cn1` [Example 156, (R)-(3-(2-(Aminomethyl)thiazol-5-yl)sulfonyl)-5-(1-methyl-1H-pyrazol-4-yl)phenyl)(3-hydroxypyrrolidin-1-yl)methanone tri hydrochloride] the IC50 (LOXL2; [10]) was 200 nM.

Work on `CN(C)C(=O)c1cc(-c2ccccc2)cc(S(=O)(=O)c2csc(CN)n2)c1` [Example 162, 5-((2-(Aminomethyl)thiazol-4-yl)sulfonyl)-N,N-dimethyl-[1,1′-biphenyl]-3-carboxamide Hydrochloride] yielded an IC50 (LOXL2; [10]) of 310 nM.

`CN(C)C(=O)c1cc(-c2cnn(C)c2)cc(S(=O)(=O)c2csc(CN)n2)c1` [Example 164, 3-(2-(Aminomethyl)thiazol-4-yl)sulfonyl)-N,N-dimethyl-5-(1-methyl-1H-pyrazol-4-yl)benzamide Hydrochloride] showed an IC50 (LOXL2; [10]) of 1200 nM.
